Measurements from patent US6608086B2, “Dihydropyridines and new uses thereof” (Synaptic Pharmaceutical Corporation, priority 1993, dated 2003).
pKi: −log10 of the molar value.

Assays:
[1] = target: T1, α1A Human Adrenergic Receptor (Homo sapiens, UniProt P25100); assay: Radioligand binding, [3H]prazosin, cloned human α1A adrenergic receptor; settings: pKi alpha-1 1a
T1 construct: The entire coding region of α1A (1719 bp); expressed in transfected cells
T1 sequence (P25100 1-572): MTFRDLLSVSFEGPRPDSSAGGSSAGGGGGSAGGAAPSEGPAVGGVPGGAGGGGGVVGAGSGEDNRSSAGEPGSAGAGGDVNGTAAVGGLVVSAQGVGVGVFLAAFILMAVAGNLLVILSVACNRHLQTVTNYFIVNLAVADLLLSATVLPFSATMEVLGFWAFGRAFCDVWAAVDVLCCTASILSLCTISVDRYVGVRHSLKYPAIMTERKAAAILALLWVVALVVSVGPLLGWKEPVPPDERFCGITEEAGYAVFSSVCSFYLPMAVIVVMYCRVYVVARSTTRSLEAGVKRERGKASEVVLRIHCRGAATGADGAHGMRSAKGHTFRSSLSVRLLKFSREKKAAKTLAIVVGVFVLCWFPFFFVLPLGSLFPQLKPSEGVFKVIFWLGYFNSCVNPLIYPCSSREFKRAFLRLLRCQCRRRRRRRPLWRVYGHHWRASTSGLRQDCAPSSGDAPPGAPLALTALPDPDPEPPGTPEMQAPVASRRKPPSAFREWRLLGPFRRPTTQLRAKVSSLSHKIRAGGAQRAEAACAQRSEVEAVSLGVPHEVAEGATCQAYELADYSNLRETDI
How it was run: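 Binding of [3H]prazosin (0.5 nM) was measured at 37° C over 20 min in pH 7.5 Tris/MgCl2/ascorbate buffer, using membrane preparations of LM(tk−) cells expressing cloned human α1A receptor. Filtration through GF/B filters stopped the reaction. 10 μM phentolamine gave nonspecific binding.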

[2] = [3H]prazosin, cloned human receptor in LM(tk-) cell membranes, SEM and n in lines below

Row | SMILES | melting point | pKi [1] | pKi [1, 2]
1 | COC(=O)C1=C(C)NC(C)=C(C(=O)NCCCN2CCC(c3ccccc3)(c3ccccc3)CC2)C1c1ccc(-c2ccccc2)cc1 (stereo not drawn) [Example 7] | 136 to 139 °C | 5.93 | –
2 | COC(=O)C1=C(C)NC(C)=C(C(=O)NCCCN2CCC(c3ccccc3)(c3ccccc3)CC2)C1Cc1ccccc1 (stereo not drawn) [Example 8, 4-Benzyl-1,4-dihydro-3-methoxycarbonyl-2,6-dimethyl-5-(N-(3-(4,4-diphenylpiperidin-1-yl)propyl)carboxamido)pyridine] | 175 to 177 °C | – | 6.42
3 | COC(=O)C1=C(C)NC(C)=C(C(=O)NCCCN2CCC(c3ccccc3)(c3ccccc3)CC2)C1c1cc[n+]([O-])cc1 (stereo not drawn) [Example 9, 1,4-Dihydro-3-methoxycarbonyl-2,6-Dimethyl-4-(1-oxido-4-pyridyl)-5-(N-(3-(4,4-diphenylpiperidin-1-yl)propyl)carboxamido)pyridine] | 206 to 209 °C (dec.) | – | 5.77
4 | COC(=O)C1=C(C)NC(C)=C(C(=O)NCCCN2CCC(c3ccccc3)(c3ccccc3)CC2)C1c1ccc(Cl)cc1 (stereo not drawn) [Example 10, 4-(4-Chlorophenyl)-1,4-dihydro-5-methoxycarbonyl-2,6-Dimethyl-5-(N-(3-(4,4-diphenylpiperidin-1-yl)propyl)carboxamido)pyridine] | 240 to 242 °C | 6.35 | –
5 | COC(=O)C1=C(C)NC(C)=C(C(=O)NCCCN2CCC(c3ccccc3)(c3ccccc3)CC2)C1c1ccc2c(c1)OCO2 (stereo not drawn) [Example 11, 1,4-Dihydro-3-methoxycarbonyl-2,6-dimethyl-4-(3,4-methylenedioxyphenyl)-5-(N-(3-(4,4-diphenylpiperidin-1-yl)propyl)carboxamido)pyridine] | 197 to 200 °C | 6.52 | –
6 | COC(=O)C1=C(C)NC(C)=C(C(=O)NCCCN2CCC(c3ccccc3)(c3ccccc3)CC2)C1c1ccc(C#N)cc1 (stereo not drawn) [Example 12, 4-(4-Cyanophenyl)-1,4-dihydro-3-methoxycarbonyl-2,6-dimethyl-5-(N-(3-(4,4-diphenylpiperidin-1-yl)propyl)carboxamido)pyridine] | 115 to 118 °C | 6.42 | –
7 | COC(=O)C1=C(C)NC(C)=C(C(=O)NCCCN2CCC(c3ccccc3)(c3ccccc3)CC2)C1c1ccc(I)cc1 (stereo not drawn) [Example 13, 1,4-Dihydro-4-(4-iodophenyl)-3-methoxycarbonyl-2,6-dimethyl-5-(N-(3-(4,4-diphenylpiperidin-1-yl)propyl)carboxamido)pyridine] | 228 to 230 °C (dec.) | 6.41 | –
8 | COC(=O)C1=C(C)NC(C)=C(C(=O)NCCCN2CCC(c3ccccc3)(c3ccccc3)CC2)C1c1cccnc1 (stereo not drawn) [Example 14, 1,4-Dihydro-3-methoxycarbonyl-2.6-dimethyl-5-(N-(3-(4,4-diphenylpiperidin-1-yl)propyl)carboxamido)-4-(3-pyridyl)pyridine] | 244 to 247 °C (dec.) | – | 5.39
9 | COC(=O)C1=C(C)NC(C)=C(C(=O)NCCCN2CCC(c3ccccc3)(c3ccccc3)CC2)C1c1ccc(Br)cc1 (stereo not drawn) [Example 15, 4-(4-Bromophenyl)-1,4-dihydro-3-methoxycarbonyl-2,6-dimethyl-5-(N-(3-(4,4-diphenylpiperidin-1-yl)propyl)carboxamido)pyridine] | 244 to 247 °C (dec.) | 6.38 | –
10 | COC(=O)C1=C(C)NC(C)=C(C(=O)NCCCN2CCC(c3ccccc3)(c3ccccc3)CC2)C1c1ccc(Cl)c([N+](=O)[O-])c1 (stereo not drawn) [Example 16, 4-(4-Chloro-3-nitrophenyl)-1,4-dihydro-3-methoxycarbonyl-2,6-dimethyl-5-(N-(3-(4,4-diphenylpiperidin-1-yl)propyl)carboxamido)pyridine] | 178 to 181 °C | 6.37 | –
11 | COC(=O)C1=C(C)NC(C)=C(C(=O)NCCCN2CCC(c3ccccc3)(c3ccccc3)CC2)C1c1ccc(C(C)C)cc1 (stereo not drawn) [Example 18, 1,4-Dihydro-4-(4-isopropylphenyl)-3-methoxycarbonyl-2,6-dimethyl-5-(N-(3-(4,4-diphenylpiperidin-1-yl)propyl)carboxamido)pyridine] | 163 to 163.5 °C | 6.05 | –
12 | COC(=O)C1=C(C)NC(C)=C(C(=O)NCCCN2CCC(c3ccccc3)(c3ccccc3)CC2)C1c1ccc(C)cc1 (stereo not drawn) [Example 19, 1,4-Dihydro-3-methoxycarbonyl-1,6-dimethyl-4-(4-methylphenyl)-5-(N-(3-(4,4-diphenylpiperidin-1-yl)propyl)carboxamido)pyridine] | 234 to 235 °C | 6.50 | –
13 | COC(=O)C1=C(C)NC(C)=C(C(=O)NCCCN2CCC(c3ccccc3)(c3ccccc3)CC2)C1c1ccc(F)cc1 (stereo not drawn) [Example 20, 4-(4-Fluorophenyl)-1,4-dihydro-3-methoxycarbonyl-2,6-dimethyl-5-(N-(3-(4,4-diphenylpiperidin-1-yl)propyl)carboxamido)pyridine] | 251 to 251.5 °C | 5.87 | –
14 | COC(=O)C1=C(C)NC(C)=C(C(=O)NCCCN2CCC(c3ccccc3)(c3ccccc3)CC2)C1c1ccc(OC)cc1 (stereo not drawn) [Example 21, 1,4-Dihydro-3-methoxycarbonyl-4-(4-Methoxyphenyl)-2,6-dimethyl-5-(N-(3-(4,4-diphenylpiperidin-1-yl)propyl)carboxamido)pyridine] | 212 to 213 °C | 6.31 | –
15 | COC(=O)C1=C(C)NC(C)=C(C(=O)NCCCN2CCC(c3ccccc3)(c3ccccc3)CC2)C1c1ccoc1 (stereo not drawn) [Example 23, 4-(3-Furyl)-1,4-dihydro-3-methoxycarbonyl-2,6-dimethyl-5-(N-(3-(4,4-diphenylpiperidin-1-yl)propyl)carboxamide)pyridine] | 225 to 226 °C | – | 6.19
16 | COC(=O)C1=C(C)NC(C)=C(C(=O)NCCCN2CCC(c3ccccc3)(c3ccccc3)CC2)C1c1ccc(Cl)c(Cl)c1 (stereo not drawn) [Example 24, 4-(3,4-Dichlorophenyl)-1,4-dihydro-3-methoxycarbonyl-2,6-dimethyl-5-(3-(D 44-diphenylpiperidin-1-yl)propylcarboxamido)pyridine] | 177 to 178 °C | 6.49 | –
17 | COC(=O)C1=C(C)NC(C)=C(C(=O)NCCCN2CCC(c3ccccc3)(c3ccccc3)CC2)C1c1ccc(C(=O)OC)cc1 (stereo not drawn) [Example 25, 1,4-Dihydro-3-methoxycarbonyl-4-(4-methoxycarbonylphenyl)-2,6-dimethyl-5-(N-(3-(4,4-diphenylpiperidin-1-yl)propyl)carboxamide)pyridine] | 175.5 to 176 °C | 6.19 | –
18 | COC(=O)C1=C(C)NC(C)=C(C(=O)NCCCN2CCC(c3ccccc3)(c3ccccc3)CC2)C1c1ccc(OC)c(OC)c1 (stereo not drawn) [Example 26] | 180 to 181 °C | 6.28 | –
19 | COC(=O)C1=C(C)NC(C)=C(C(=O)NCCCN2CCC(c3ccccc3)(c3ccccc3)CC2)C1c1cc(OC)c(OC)c(OC)c1 (stereo not drawn) [Example 27] | 187 to 188 °C | 6.42 | –
20 | COC(=O)C1=C(C)NC(C)=C(C(=O)NCCCN2CCC(c3ccccc3)(c3ccccc3)CC2)C1c1ccc([N+](=O)[O-])c(OC)c1 (stereo not drawn) [Example 29, 1,4-Dihydro-3-methoxycarbonyl-4-(3-methoxy-4-nitrophenyl)-2,6-dimethyl-5-(N-(3-(4,4-diphenylpiperidin-1-yl)propyl)carboxamido)pyridine] | 211 to 213 °C | – | 6.58
21 | CC1=C(C(=O)NCCCN2CCC(c3ccccc3)(c3ccccc3)CC2)C(c2ccc([N+](=O)[O-])cc2)C2=C(CCCC2=O)N1 (stereo not drawn) [Example 40, 1,4,5,6,7,8-Hexahydro-2-methyl-4-(4-nitrophenyl)-5-oxo-3-{N-[3-(4,4-diphenylpiperidin-1-yl)propyl]}carboxamidoquinoline] | 143 to 146 °C | – | 6.26
22 | CCC1=C(C(N)=O)C(c2ccc([N+](=O)[O-])cc2)C(C(=O)NCCCN2CCC(c3ccccc3)(c3ccccc3)CC2)=C(C)N1 (stereo not drawn) [Example 41, 3-Carboxamido-2-ethyl-1,4-dihydro-6-methyl-4-(4-nitrophenyl)-3-{N-[3-(4,4-diphenylpiperidin-1-yl)propyl]}carboxamidopyridine] | 120 to 124 °C | – | 6.30
23 | CC1=C(C(N)=O)C(c2cccc([N+](=O)[O-])c2)C(C(=O)NCCCN2CCC(c3ccccc3)(c3ccccc3)CC2)=C(C)N1 (stereo not drawn) [Example 61, 5-Carboxamido-1,4-dihydro-2,6-dimethyl-4-(3-nitrophenyl)-3-{N-[3-(4,4-diphenylpiperidin-1-yl)propyl]}carboxamidopyridine] | 144 to 148 °C | – | 6.07
24 | CC1=C(C(=O)NCCCN2CCC(c3ccccc3)(c3ccccc3)CC2)C(c2ccc([N+](=O)[O-])cc2)c2c([nH]c(=O)[nH]c2=O)N1 (stereo not drawn) [Example 64] | 184 to 186 °C | – | 6.31
